Results published in patent publication US20250388597A1, “BIFUNCTIONAL PHOTOCROSSLINKING PROBES FOR COVALENT CAPTURE OF PROTEIN-NUCLEIC ACID COMPLEXES IN CELLS” (UNIVERSITY OF SOUTHERN CALIFORNIA, priority 2022, published 2025).

Tests used:
[1] = system: MEF2A/DNA complexes in GM12878 cells; experiment: Capture of MEF2A/DNA complexes in GM12878 nuclei, western blot; type: cell-based; conditions: probe 10 μM + UV365 10 min
Protocol: FIG. 10A depicts Western blot analysis of presence of complexing of MEF2A with DNA in GM12878 cells treated with UV365 and SPB-PEG3-AAD. For each lane, one million of GM12878 cells were used. The nuclei of the cells were extracted and resuspended in 500 μl PBS, treated with various combination of SPB-PEG3-AAD (10 μM) and/or UV365 (10 min, 30 W, LED, sample distance 3 cm, cooling at 4-degree C.). The samples were then sonicated using covaries (1 min) followed by limited MNase digestion (10 min, 37-degree C.). The lysed and partially digested samples were then mixed with SDS loading dye (2% SDS, boil for 10 min) and run on SDS gel for western blot analyses of MEF2A using Anti-MEF2 antibody (B-4) (SCBT, cat #sc-17785).
We tested the capture of MEF2A/DNA complexes in the GM12878 cell line, a Tier 1 ENCODE cell line with rich genomics data.

FOXP3 in Hela cells = target: T1, FOXP3 in Hela cells (Homo sapiens, UniProt Q9BZS1); experiment: Capture of AVI-TEV-FLAG tagged FOXP3 complexes in transfected Hela cells, western blot; type: cell-based
T1 construct: AVI tag; TEV site; expressed in transfected cells; host or cells: Hela
T1 sequence (Q9BZS1 1-431): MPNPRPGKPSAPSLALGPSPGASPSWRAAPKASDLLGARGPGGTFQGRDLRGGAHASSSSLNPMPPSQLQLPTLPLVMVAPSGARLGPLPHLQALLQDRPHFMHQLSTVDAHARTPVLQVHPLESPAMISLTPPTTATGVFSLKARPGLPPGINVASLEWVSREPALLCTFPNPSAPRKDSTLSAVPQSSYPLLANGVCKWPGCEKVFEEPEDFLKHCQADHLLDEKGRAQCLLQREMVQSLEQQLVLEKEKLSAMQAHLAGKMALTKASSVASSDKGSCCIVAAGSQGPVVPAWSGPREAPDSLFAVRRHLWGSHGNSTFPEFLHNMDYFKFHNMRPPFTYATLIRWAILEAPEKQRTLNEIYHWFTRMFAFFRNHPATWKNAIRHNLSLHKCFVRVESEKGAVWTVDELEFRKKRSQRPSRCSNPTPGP
Protocol: FIG. 10B depicts Western blot analysis of Hela cells transfected with AVI-TEV-FLAG tagged FOXP3. For each lane, approximately one million of cells were used. Lane 1 was fixed with 1% formaldehyde (FA) for 10 min according to standard protocol. Lane 2, untreated control, Lane 3, UV only, lane 4 and lane 6 were treated with SPB-AAD of 1 or 10 μM, respectively but without UV illumination, lane 5 and lane 7 were treated with SPB-AAD of 1 or 10 μM, respectively and illuminated by UV365 (10 min, 30 W, LED, sample distance 3 cm, cooling at 4 degree C.). The cells were lysed using RIPA buffer and further digested by MNase. The sample mixtures were mixed with SDS loading dye (2% SDS, boil for 10 min) and run on SDS gel for western blot analyses of using Anti-FLAG antibody.
We have performed similar experiments with a different system, Hela cells transfected with AVI-TEV-FLAG tagged FOXP3.

| dependence of higher molecular weight FOXP3 complex formation on probe concentration (FOXP3 in Hela cells; 10 μM (lane 7) vs 1 μM (lane 5)) | SMILES | capture of MEF2A complexes [1] | capture of higher molecular weight FOXP3 complexes (FOXP3 in Hela cells; probe 1 or 10 μM + UV365 10 min (lanes 5 and 7)) |
| --- | --- | --- | --- |
|  | C#CCCC1(CCNC(=O)CCOCCOCCOCCC(=O)NCCNC(=O)CCCOc2c3occc3cc3ccc(=O)oc23)N=N1 [SPB-PEG3-AAD] | could capture MEF2 complexes in the nucleus |  |
| dosage dependent | C#CCCC1(CCNC(=O)CCCOc2c3occc3cc3ccc(=O)oc23)N=N1 [SPB-AAD, N-(2-(3-(but-3-yn-1-yl)-3H-diazirin-3-yl)ethyl)-4-((7-oxo-7H-furo[3,2-g]chromen-9-yl)oxy)butanamide] |  | can capture higher molecular weight FOXP3 complexes |
